According to US8377424B2, “Treatment of periodontal disease” (Mars, Incorporated, priority 1996, dated 2013):
Values belong to the molecule of their own block, whether it stands above or below them.

What was measured:
[1] = Rancimat oxidative stability test of peanut oil; settings: Rancimat 100° C., 20 cc/min air, control 10.5 ± 0.7
Method: The procedures described in Examples 1, 2 and 3 were used to prepare cocoa extracts which were manipulated further to produce two fractions from gel permeation chromatography. These two fractions are actually combined fractions A through C, and D and E (See FIG. 1) whose antioxidant properties were compared against the synthetic antioxidants BHA and BHT.
Peanut Oil was pressed from unroasted peanuts after the skins were removed. 50 μL of methanol solubilized antioxidant was added to each sample to aid in dispersion of the antioxidant. A control sample was prepared with 50 μL of methanol containing no antioxidant.
The samples were evaluated in duplicate, for oxidative stability using the Rancimat stability test at 100° C. and 20 cc/min of air. Experimental parameters were chosen to match those used with the Active oxygen Method (AOM) or Swift Stability Test (Van oosten et al., 1981). Results are reported in Table 8 as hours required to reach a peroxide level of 100 meq.

Helicobacter pylori = assay: Disk diffusion bioassay, H. pylori; type: cell-based; settings: control disk containing 80 ug metronidazole
Method: (§1) A study was conducted to evaluate the antimicrobial activity of procyanidin oligomers against Helicobacter pylori and Staphylococcus aureus. Pentamer enriched material was prepared as described in Example 13, Method A and analyzed as described in Example 14, Method C, where 89% was pentamer, and 11% was higher oligomers (n is 6 to 12). Purified pentamer (96.3%) was prepared as described in Example 14, Method D.
(§2) Helicobacter pylori and Staphylococcus aureus were obtained from the American Type Culture Collection (ATCC). For H. pylori, the vial was rehydrated with 0.5 mL Trypticase Soy broth and the suspension transferred to a slant of fresh TSA containing 5% defibrinated sheep blood. The slant was incubated at 37° C. for 3 to 5 days under microaerophilic conditions in anaerobic jars (5 to 10% carbon dioxide; CampyPakPlus, BBL). When good growth was established in the pool of broth at the bottom of the slant, the broth was used to inoculate additional slants of TSA with sheep blood. Because viability decreased with continued subculturing, the broth harvested from the slants was pooled and stored at −80° C. Cultures for assay were used directly from the frozen vials. […]
(§3) A cell suspension of each culture was prepared (H. pylori, 10^8 to 10^9 cfu/mL; S. aureus 10^6 to 10^7 cfu/mL) and 0.5 mL spread onto TSA plates with 5% sheep blood. […] Zones of inhibition were measured following outgrowth.

Staphylococcus aureus = assay: Disk diffusion bioassay, S. aureus; type: cell-based; settings: control disk containing 30 ug vancomycin
Method: as §1, §2, §3

Oxidative Stability of Peanut Oil, hours required to reach a peroxide level of 100 meq, average ([1]; 20 ppm): 16.5 ± 2.1 h
Oxidative Stability of Peanut Oil, hours required to reach a peroxide level of 100 meq, average ([1]; 100 ppm): 12.5 ± 2.1 h
Compound: Cc1cc(C(C)(C)C)c(O)c(C(C)(C)C)c1 [BHT, Butylated Hydroxytoluene]

Compound: Cc1ncc([N+](=O)[O-])n1CCO [Metronidazole, metronidazole]
H. pylori Inhibition (Helicobacter pylori): 11 mm

Compound: CN[C@H](CC(C)C)C(=O)N[C@H]1C(=O)N[C@@H](CC(N)=O)C(=O)N[C@H]2C(=O)N[C@H]3C(=O)N[C@H](C(=O)N[C@H](C(=O)O)c4cc(O)cc(O)c4-c4cc3ccc4O)[C@H](O)c3ccc(c(Cl)c3)Oc3cc2cc(c3O[C@@H]2O[C@H](CO)[C@@H](O)[C@H](O)[C@H]2O[C@H]2C[C@](C)(N)[C@H](O)[C@H](C)O2)Oc2ccc(cc2Cl)[C@H]1O [Vancomycin, vancomycin]
S. aureus Inhibition (Staphylococcus aureus): 15 mm
